Assay results taken from US12077537B2 (Gilead Sciences, Inc., priority 2020, dated 2024).

What follows are molecules tested on HIV-IIIb (assay: Antiviral assay in MT4 cells). Settings: Human immunodeficiency virus 1, MT4, 120 h; MT-4 cells mixed with HIV-IIIb at m.o.i. 0.003; 5 days at 37° C.; CellTiter-Glo luminescence; 50% decrease in signal, a measure of HIV-1 replication.
Type: cell-based
Summary of the method: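 MT-4 cells were infected with HIV-IIIb at m.o.i. 0.003 for 1 hour, then added to 3-fold serially diluted compound (10 concentrations, quadruplicate) in medium with 10% FBS. After 5 days at 37° C, cell viability was read by CellTiter-Glo chemiluminescence.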

SMILES	EC50 [nM]
Cn1nc(NS(C)(=O)=O)c2cccc(-c3cc4sc(N5CCNCC5)nc4nc3[C@H](Cc3cc(F)cc(F)c3)NC(=O)Cn3nc(C(F)(F)F)c4c3C(F)(F)[C@@H]3C[C@H]43)c21 [Example 86, 2-((3bS,4aR)-5,5-difluoro-3-(trifluoromethyl)-3b,4,4a,5-tetrahydro-1H-cyclopropa[3,4]cyclopenta[1,2-c]pyrazol-1-yl)-N—((S)-2-(3,5-difluorophenyl)-1-(6-(1-methyl-3-(methylsulfonamido)-1H-indazol-7-yl)-2-(piperazin-1-yl)thiazolo[4,5-b]pyridin-5-yl)ethyl)acetamide]	15.3
Cn1nc(NS(C)(=O)=O)c2cccc(-c3cc4sc(N5CC6(CNC6)C5)nc4nc3[C@H](Cc3cc(F)cc(F)c3)NC(=O)Cn3nc(C(F)(F)F)c4c3C(F)(F)[C@@H]3C[C@H]43)c21 [Example 87, 2-((3bS,4aR)-5,5-difluoro-3-(trifluoromethyl)-3b,4,4a,5-tetrahydro-1H-cyclopropa[3,4]cyclopenta[1,2-c]pyrazol-1-yl)-N—((S)-2-(3,5-difluorophenyl)-1-(6-(1-methyl-3-(methylsulfonamido)-1H-indazol-7-yl)-2-(2,6-diazaspiro[3.3]heptan-2-yl)thiazolo[4,5-b]pyridin-5-yl)ethyl)acetamide]	269
C[C@H]1CN(c2nc3nc([C@H](Cc4cc(F)cc(F)c4)NC(=O)Cn4nc(C(F)(F)F)c5c4C(F)(F)[C@@H]4C[C@H]54)c(-c4cccc5c(NS(C)(=O)=O)nn(C)c45)cc3s2)CCN1 [Example 88, 2-((3bS,4aR)-5,5-difluoro-3-(trifluoromethyl)-3b,4,4a,5-tetrahydro-1H-cyclopropa[3,4]cyclopenta[1,2-c]pyrazol-1-yl)-N—((S)-2-(3,5-difluorophenyl)-1-(6-(1-methyl-3-(methylsulfonamido)-1H-indazol-7-yl)-2-((S)-3-methylpiperazin-1-yl)thiazolo[4,5-b]pyridin-5-yl)ethyl)acetamide]	10.3
C[C@@H]1CN(c2nc3nc([C@H](Cc4cc(F)cc(F)c4)NC(=O)Cn4nc(C(F)(F)F)c5c4C(F)(F)[C@@H]4C[C@H]54)c(-c4cccc5c(NS(C)(=O)=O)nn(C)c45)cc3s2)CCN1 [Example 89, 2-((3bS,4aR)-5,5-difluoro-3-(trifluoromethyl)-3b,4,4a,5-tetrahydro-1H-cyclopropa[3,4]cyclopenta[1,2-c]pyrazol-1-yl)-N—((S)-2-(3,5-difluorophenyl)-1-(6-(1-methyl-3-(methylsulfonamido)-1H-indazol-7-yl)-2-((R)-3-methylpiperazin-1-yl)thiazolo[4,5-b]pyridin-5-yl)ethyl)acetamide]	11.3
Cn1nc(NS(C)(=O)=O)c2cccc(-c3cc4sc(N5CCC6(CC5)CNC6)nc4nc3[C@H](Cc3cc(F)cc(F)c3)NC(=O)Cn3nc(C(F)(F)F)c4c3C(F)(F)[C@@H]3C[C@H]43)c21 [Example 90, 2-((3bS,4aR)-5,5-difluoro-3-(trifluoromethyl)-3b,4,4a,5-tetrahydro-1H-cyclopropa[3,4]cyclopenta[1,2-c]pyrazol-1-yl)-N—((S)-2-(3,5-difluorophenyl)-1-(6-(1-methyl-3-(methylsulfonamido)-1H-indazol-7-yl)-2-(2,7-diazaspiro[3.5]nonan-7-yl)thiazolo[4,5-b]pyridin-5-yl)ethyl)acetamide]	431
Cn1nc(NS(C)(=O)=O)c2cccc(-c3cc4sc(N5CC6(CCNCC6)C5)nc4nc3[C@H](Cc3cc(F)cc(F)c3)NC(=O)Cn3nc(C(F)(F)F)c4c3C(F)(F)[C@@H]3C[C@H]43)c21 [Example 91, 2-((3bS,4aR)-5,5-difluoro-3-(trifluoromethyl)-3b,4,4a,5-tetrahydro-1H-cyclopropa[3,4]cyclopenta[1,2-c]pyrazol-1-yl)-N—((S)-2-(3,5-difluorophenyl)-1-(6-(1-methyl-3-(methylsulfonamido)-1H-indazol-7-yl)-2-(2,7-diazaspiro[3.5]nonan-2-yl)thiazolo[4,5-b]pyridin-5-yl)ethyl)acetamide]	64.9
Cn1nc(NS(C)(=O)=O)c2cccc(-c3cc4[nH]c(C5CC5)nc4nc3[C@H](Cc3cc(F)cc(F)c3)NC(=O)Cn3nc(C(F)(F)F)c4c3C(F)(F)[C@@H]3C[C@H]43)c21 [Example 92, N—((S)-1-(2-cyclopropyl-6-(1-methyl-3-(methylsulfonamido)-1H-indazol-7-yl)-1H-imidazo[4,5-b]pyridin-5-yl)-2-(3,5-difluorophenyl)ethyl)-2-((3bS,4aR)-5,5-difluoro-3-(trifluoromethyl)-3b,4,4a,5-tetrahydro-1H-cyclopropa[3,4]cyclopenta[1,2-c]pyrazol-1-yl)acetamide]	14.8
Cn1nc(NS(C)(=O)=O)c2cccc(-c3cc4[nH]c(C5CC5)nc4nc3[C@H](Cc3cc(F)cc(F)c3)NC(=O)Cn3nc(C(F)F)c4c3C(F)(F)[C@@H]3C[C@H]43)c21 [Example 93, N—((S)-1-(2-cyclopropyl-6-(1-methyl-3-(methylsulfonamido)-1H-indazol-7-yl)-1H-imidazo[4,5-b]pyridin-5-yl)-2-(3,5-difluorophenyl)ethyl)-2-((3bS,4aR)-3-(difluoromethyl)-5,5-difluoro-3b,4,4a,5-tetrahydro-1H-cyclopropa[3,4]cyclopenta[1,2-c]pyrazol-1-yl)acetamide]	11.1
Cn1nc(NS(C)(=O)=O)c2cccc(-c3cc4[nH]c(-c5ccccc5)nc4nc3[C@H](Cc3cc(F)cc(F)c3)NC(=O)Cn3nc(C(F)(F)F)c4c3C(F)(F)[C@@H]3C[C@H]43)c21 [Example 94, 2-((3bS,4aR)-5,5-difluoro-3-(trifluoromethyl)-3b,4,4a,5-tetrahydro-1H-cyclopropa[3,4]cyclopenta[1,2-c]pyrazol-1-yl)-N—((S)-2-(3,5-difluorophenyl)-1-(6-(1-methyl-3-(methylsulfonamido)-1H-indazol-7-yl)-2-phenyl-1H-imidazo[4,5-b]pyridin-5-yl)ethyl)acetamide]	81.2
Cn1nc(NS(C)(=O)=O)c2cccc(-c3cc4[nH]c(-c5ccccc5)nc4nc3[C@H](Cc3cc(F)cc(F)c3)NC(=O)Cn3nc(C(F)F)c4c3C(F)(F)[C@@H]3C[C@H]43)c21 [Example 95, 2-((3bS,4aR)-3-(difluoromethyl)-5,5-difluoro-3b,4,4a,5-tetrahydro-1H-cyclopropa[3,4]cyclopenta[1,2-c]pyrazol-1-yl)-N—((S)-2-(3,5-difluorophenyl)-1-(6-(1-methyl-3-(methylsulfonamido)-1H-indazol-7-yl)-2-phenyl-1H-imidazo[4,5-b]pyridin-5-yl)ethyl)acetamide]	67.5
Cn1nc(NS(C)(=O)=O)c2c(Cl)ccc(-c3cc4[nH]c(C5CC5)nc4nc3[C@H](Cc3cc(F)cc(F)c3)NC(=O)Cn3nc(C(F)(F)F)c4c3C(F)(F)[C@@H]3C[C@H]43)c21 [Example 96, N—((S)-1-(6-(4-chloro-1-methyl-3-(methylsulfonamido)-1H-indazol-7-yl)-2-cyclopropyl-1H-imidazo[4,5-b]pyridin-5-yl)-2-(3,5-difluorophenyl)ethyl)-2-((3bS,4aR)-5,5-difluoro-3-(trifluoromethyl)-3b,4,4a,5-tetrahydro-1H-cyclopropa[3,4]cyclopenta[1,2-c]pyrazol-1-yl)acetamide]	3.9
